Reference: the supplement of paper PMC10307832

Experiments:
Experiment in all cases: relative viability (nuclei count vs DMSO), 5 days (fraction); higher = more cells survive
[1] = compound: COc1cc2nc(N3CCCN(C)CC3)nc(NC3CCN(Cc4ccccc4)CC3)c2cc1OC
Outline: (§1)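 Viability was defined as treated-well nuclei divided by vehicle-well nuclei, with the median taken over replicate plates. Cells from lung cancer lines sat overnight at 37 °C in 1536-well plates, received five √10-spaced library-drug doses by pinning on vehicle-anchored plates, and grew 5 days without medium change before one-step fixation, permeabilisation and Hoechst staining, 4× imaging and MetaXpress nuclear counts. Only plates with control CV under 25% and at least one doubling were kept.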

[2] = compound: Cc1cc([C@@H](C)Nc2ccccc2C(=O)O)c2nc(N3CCOCC3)cc(=O)n2c1 [AZD6482]
Outline: as §1

[3] = compound: COc1cc2nc(N3CCCN(C)CC3)nc(NC3CCN(Cc4ccccc4)CC3)c2cc1OC + CC1(C)CCC(c2ccc(Cl)cc2)=C(CN2CCN(c3ccc(C(=O)NS(=O)(=O)c4ccc(N[C@H](CCN5CCOCC5)CSc5ccccc5)c(S(=O)(=O)C(F)(F)F)c4)cc3)CC2)C1 [Navitoclax] (partner 0.5 µM)
Outline: (§2)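 Lung cancer cell lines in 1536-well plates were dosed by pin tool the day after seeding, either with one drug alone or with a fixed anchor-drug dose plus five library-drug doses (not always all listed) in √10 steps. After 5 days, cells were fixed and their nuclei stained in one step (final 0.05% Triton X-100, 1% formaldehyde, 1 ug/ml Hoechst), then counted on 4× images. Relative viability is the nuclei count in treated wells divided by that in vehicle wells. Values are medians of duplicate plates.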

[4] = compound: Cc1cc([C@@H](C)Nc2ccccc2C(=O)O)c2nc(N3CCOCC3)cc(=O)n2c1 [AZD6482] + N=C(N)NC(=N)NCCc1ccccc1 [Phenformin] (partner 250 µM)
Outline: as §2

Cell Line	relative viability ([1]; 0.2 µM)	relative viability ([1]; 0.6325 µM)	relative viability ([1]; 2 µM)	relative viability ([1]; 6.325 µM)	relative viability ([2]; 0.08 µM)	relative viability ([2]; 0.253 µM)	relative viability ([2]; 0.8 µM)	relative viability ([2]; 2.53 µM)	relative viability ([2]; 8 µM)	relative viability ([3]; first compound 0.2 µM)	relative viability ([3]; first compound 0.6325 µM)	relative viability ([3]; first compound 2 µM)	relative viability ([3]; first compound 6.325 µM)	relative viability ([4]; first compound 0.08 µM)	relative viability ([4]; first compound 0.253 µM)	relative viability ([4]; first compound 0.8 µM)	relative viability ([4]; first compound 2.53 µM)	relative viability ([4]; first compound 8 µM)
NCI-H647	0.872	1.06	1.04	0.764	0.797	0.564	0.859	0.513	0.646	1.07	1.18	1.32	0.964	0.417	0.473	0.399	0.262	0.324
NCI-H2023	0.949	0.995	0.93	0.516	0.923	0.881	0.909	0.567	0.662	1.02	1.01	1.03	0.616	0.384	0.368	0.379	0.261	0.29
NCI-H23	0.975	0.962	1.05	0.927	0.967	0.861	1	0.61	0.624	0.757	0.882	1.02	0.722	0.789	0.785	0.84	0.628	0.658
NCI-H1944	1.01	1	0.745	0.902	0.92	0.836	0.946	0.685	0.735	1.1	1.02	–	0.982	0.216	0.193	0.19	0.154	0.153
NCI-H1793	0.86	0.959	0.863	0.819	0.774	0.5	0.756	0.386	0.499	0.49	0.489	0.492	0.457	0.338	0.311	0.24	0.191	0.15
NCI-H520	1.02	0.912	1.02	0.736	0.713	0.627	0.623	0.208	0.337	1.21	0.89	0.989	0.867	0.402	0.283	0.285	0.166	0.225
A549	1.02	1.01	0.992	0.935	0.935	0.965	0.947	0.566	0.769	1.24	1.13	1.14	1.06	0.154	0.14	0.222	0.158	0.153
NCI-H460	0.997	1.01	0.992	0.978	0.963	0.969	1.01	0.846	0.822	1.16	1.13	1.17	0.754	0.492	0.512	0.535	0.326	0.182
EKVX	0.953	1.04	0.962	0.954	0.813	0.819	0.832	0.549	0.654	0.826	0.926	1.04	0.881	0.212	0.22	0.233	0.171	0.208
EPLC-272H	0.918	1	1.2	0.783	0.778	0.71	0.888	0.535	0.596	1.08	1.06	1.22	1.02	0.311	0.241	0.343	0.24	0.154
NCI-H1395	0.925	1.09	0.976	0.787	0.742	0.539	0.697	0.443	0.527	1.18	1.32	1.17	1.05	0.388	0.385	0.438	0.347	0.302
NCI-H2126	0.996	1.02	0.998	0.926	0.916	0.94	0.891	0.585	0.654	0.847	0.777	0.804	0.81	0.507	0.521	0.451	0.355	0.349
LXF-289	0.99	0.993	1.04	1	1.01	1.07	1.06	0.93	0.973	0.894	0.938	1.01	0.905	0.491	0.471	0.51	0.452	0.307
NCI-H2009	1.04	0.94	1.17	0.932	1.02	1.04	1.06	0.59	0.74	1.22	1.17	1.2	1.15	0.476	0.49	0.442	0.283	0.34
NCI-H2405	1.03	1.08	1.13	0.989	0.749	0.672	1.03	0.631	0.599	0.829	0.826	0.84	0.728	0.274	–	0.346	0.309	0.274
NCI-H1755	0.974	0.957	0.939	0.935	0.957	0.953	1	0.756	0.785	0.995	0.972	0.951	0.968	0.525	0.576	0.542	0.427	0.41
HCC-78	0.937	1.04	1.08	1.02	0.749	0.622	0.632	0.372	0.405	0.844	0.779	0.717	0.602	0.506	0.421	0.562	0.309	0.31
LOU-NH91	0.96	1.13	0.838	0.983	0.852	0.918	0.959	0.61	0.744	0.717	0.688	0.578	0.742	0.546	0.718	0.737	0.46	0.556
